Laboratory results as given in the supplement of paper PMC10307832.

What was measured:
Experiment in all cases: relative viability (nuclei count vs DMSO), 5 days (fraction); higher = more cells survive
Imatinib + Navitoclax = compound: Cc1ccc(NC(=O)c2ccc(CN3CCN(C)CC3)cc2)cc1Nc1nccc(-c2cccnc2)n1 [Imatinib] + CC1(C)CCC(c2ccc(Cl)cc2)=C(CN2CCN(c3ccc(C(=O)NS(=O)(=O)c4ccc(N[C@H](CCN5CCOCC5)CSc5ccccc5)c(S(=O)(=O)C(F)(F)F)c4)cc3)CC2)C1 [Navitoclax] (partner 0.5 µM)
Summary of the method: (§1)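 Medians of duplicate plates are given as relative viability. That measure is the nuclei count in treated wells divided by the count in vehicle wells. Counts were taken on 4× images of lung cancer cell lines in 1536-well plates, 5 days after pin-tool dosing the day after seeding with one drug alone or a fixed anchor-drug dose plus five library-drug doses (not always all listed) in √10 steps.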

Imatinib + Trametinib = compound: Cc1ccc(NC(=O)c2ccc(CN3CCN(C)CC3)cc2)cc1Nc1nccc(-c2cccnc2)n1 [Imatinib] + CC(=O)Nc1cccc(-n2c(=O)n(C3CC3)c(=O)c3c(Nc4ccc(I)cc4F)n(C)c(=O)c(C)c32)c1 [Trametinib] (partner 0.02 µM)
Summary of the method: as §1

Imatinib + AZD7762 = compound: Cc1ccc(NC(=O)c2ccc(CN3CCN(C)CC3)cc2)cc1Nc1nccc(-c2cccnc2)n1 [Imatinib] + NC(=O)Nc1cc(-c2cccc(F)c2)sc1C(=O)N[C@H]1CCCNC1 [AZD7762] (partner 0.2 µM)
Summary of the method: as §1

Imatinib + Pemetrexed = compound: Cc1ccc(NC(=O)c2ccc(CN3CCN(C)CC3)cc2)cc1Nc1nccc(-c2cccnc2)n1 [Imatinib] + Nc1nc2[nH]cc(CCc3ccc(C(=O)N[C@@H](CCC(=O)O)C(=O)O)cc3)c2c(=O)[nH]1 [Pemetrexed] (partner 0.2 µM)
Summary of the method: as §1

Cell Line | relative viability (Imatinib + Navitoclax; first compound 0.02 µM) | relative viability (Imatinib + Navitoclax; first compound 0.06325 µM) | relative viability (Imatinib + Navitoclax; first compound 0.2 µM) | relative viability (Imatinib + Navitoclax; first compound 0.6325 µM) | relative viability (Imatinib + Navitoclax; first compound 2 µM) | relative viability (Imatinib + Trametinib; first compound 0.02 µM) | relative viability (Imatinib + Trametinib; first compound 0.06325 µM) | relative viability (Imatinib + Trametinib; first compound 0.2 µM) | relative viability (Imatinib + Trametinib; first compound 0.6325 µM) | relative viability (Imatinib + Trametinib; first compound 2 µM) | relative viability (Imatinib + AZD7762; first compound 0.02 µM) | relative viability (Imatinib + AZD7762; first compound 0.06325 µM) | relative viability (Imatinib + AZD7762; first compound 0.2 µM) | relative viability (Imatinib + AZD7762; first compound 0.6325 µM) | relative viability (Imatinib + AZD7762; first compound 2 µM) | relative viability (Imatinib + Pemetrexed; first compound 0.02 µM) | relative viability (Imatinib + Pemetrexed; first compound 0.06325 µM) | relative viability (Imatinib + Pemetrexed; first compound 0.2 µM) | relative viability (Imatinib + Pemetrexed; first compound 0.6325 µM) | relative viability (Imatinib + Pemetrexed; first compound 2 µM)
EMC-BAC-2 | 1.18 | 1.49 | 1.31 | 1.24 | 1.22 | 0.887 | 1 | 0.904 | 1.07 | 0.853 | 1.21 | 1.3 | 1.19 | 1.21 | 1.11 | 0.443 | 0.483 | 0.447 | 0.507 | 0.424
EPLC-272H | 1.22 |  | 1.12 | 1.11 | 1.06 | 0.256 |  |  | 0.295 | 0.268 | 0.218 |  |  | 0.156 | 0.15 | 0.261 |  |  | 0.328 | 0.336
H3255 | 0.512 | 0.441 | 0.44 | 0.497 | 0.548 | 0.589 |  | 0.635 | 0.616 | 0.609 | 1.02 | 0.784 |  | 0.95 | 0.842 | 0.536 | 0.499 | 0.554 | 0.565 | 0.573
HARA | 1.19 | 1.18 | 1.15 | 1.17 | 1.16 | 0.583 | 0.574 | 0.633 | 0.467 | 0.727 | 0.361 | 0.267 | 0.292 | 0.232 | 0.304 | 0.256 | 0.235 | 0.23 | 0.286 | 0.227
HCC-15 | 0.736 | 0.522 | 0.764 | 0.722 | 0.709 | 0.399 |  | 0.411 | 0.406 | 0.359 | 0.449 |  | 1.32 | 1.42 | 1.3 | 0.225 | 0.234 | 0.236 | 0.218 | 0.211
HCC-44 | 1.11 | 1.05 | 1.03 | 0.858 | 0.866 | 1.1 |  | 1.24 | 0.94 | 1.11 |  |  | 1.13 | 1.01 | 0.968 | 0.653 |  | 0.68 | 0.671 | 0.544
HCC-78 | 0.725 | 0.62 | 0.823 | 0.7 | 0.818 | 0.837 | 0.613 | 0.9 | 0.755 | 0.881 | 0.592 | 0.714 |  | 0.636 | 0.58 | 0.865 | 0.955 | 0.949 | 0.916 | 0.882
HCC-366 | 1.02 |  | 1.13 | 1.09 | 1.07 | 0.423 | 0.346 | 0.45 | 0.321 | 0.432 | 0.367 | 0.364 | 0.288 | 0.208 | 0.181 | 0.178 | 0.197 | 0.189 | 0.173 | 0.128
HCC-827 | 1.05 | 0.947 | 1.08 | 1.05 | 0.973 | 0.483 | 0.517 | 0.646 | 0.562 | 0.515 | 0.189 | 0.215 | 0.195 | 0.17 | 0.157 | 0.283 | 0.285 | 0.249 | 0.267 | 0.255
